# From patent US20160228444A1, “NUCLEOSIDE ANALOGS AND USES THEREOF” (Ramot at Tel-Aviv University Ltd., priority 2015, published 2016)
# What was measured:
# [1] = system: HDACs of classes I and II; experiment: HDAC activity in intact cells (Fluor de Lys kit); format: cell-based, human; conditions: both U251 and Daudi cells, 2 h, FIG. 1B
# Experimental: U251 or Daudi cells seeded in 96-well plates (10^4 cells/well, in quadruplicates) in growth medium for 24 h were then treated as indicated for 2 h in the presence of the HDAC substrate (Fluor de Lys™). The reaction was terminated by the addition of the Fluor de Lys™ developer (Biomol Research Labs) and […] trichostatin A (TSA). All of the above reagents were included in a kit for measuring activities of HDACs of classes I and II (AK-503, Biomol Research Labs). The percentage inhibition was calculated from the ratio of the fluorescence (measured at 355 nm excitation and at 460 nm emission) in the drug treated compared with the untreated control culture.
# primary rat astrocytes = format: cell-based; conditions: noncancerous cells; combination compared to Dox alone; FIG. 1C
# Experimental: Cell viability by flow cytometry analysis (FACS) analysis was determined using the Mebcyto apoptosis kit (MBL-Japan). The cell lines 4T1, U251 (2×10^5 cells/well), astrocytes and the cardiomyoblastic cell line H9C2 (5×10^5 cells/well) were seeded in six-well plates. Following treatment they were trypsinized, washed with PBS, resuspended in […] of binding buffer and double-stained with annexin V-FITC and propidium iodide (PI) according to the manufacturer's instructions. The stained cells were subjected to FACS analyses (Calibur cytometer, Becton Dickinson) where 30,000 cells were allowed to flow for each determination point and the percentage of cells in each state (viability or death) was defined by their distribution in fluorescence dot-plots using WinMdi 2.8 software (Scripps Research Institute, La-Jolla, USA).
# The apoptotic effect of AN446, Dox and their combination was evaluated in U251 and 4T1 cancer cells, and in the non-cancerous rat cardiomyoblast cell line (H9C2) and in primary rat astrocytes, using procedures previously described for AN7 [Tarasenko et al., Invest New Drugs 2012, 30:130-143].
# U251 glioblastoma cells = experiment: ROS production (DCF-DA, flow cytometry); format: cell-based, human; conditions: 5-6 h treatment, FIG. 1D
# Experimental: ROS were measured in live cells by monitoring the oxidation of DCF-DA (a cell-permeable probe), which undergoes deacetylation by cellular esterases and fluoresces upon oxidation by ROS. U251 MG (2×10^5 cells/six-well plates), astrocytes or H9C2 (5×10^5 cells/six-well plates) were treated as specified, incubated with […] DCF-DA for 30 min at 37° C., washed with PBS and analyzed (10^4 cells) by flow cytometry using a 488 nm excitation beam (Calibur cytometer, Becton Dickinson). The percentage of cells stained positively for DCF was determined with CellQuest software (BD Biosciences, San Jose, Calif., USA).
# To gain insights into the mechanism of cell-type specific effects, ROS production in cancer cells and in non-cancer cells after treatment for 5-6 h with AN446, Dox and AN446+Dox, were assessed by staining the cells with the membrane-permeable fluorescent dye DCF-DA.
# TNF-α = TNF-α in supernatant of LPS-treated THP1 cells (ELISA); format: cell-based; conditions: 1 μg/ml LPS, AN446 20 or 40 μM, FIG. 7B
# Experimental: (§1) The effect of AN446 on inflammation-associated pathways was evaluated in the monocytic THP1 cell line and in the MDA-MB-231 breast carcinoma cell line. Supernatants of treated THP1 cells were collected and IL-6, IL-10 and TNF-α concentrations were quantified by ELISA (R&D systems). TLR4 expression in THP1 cells was assessed using fluorescent anti-TLR4 antibodies and FACS analysis. In addition, gene expression for MCP-1, TNF-α and TLR4 in MDA-MB-231 was evaluated by qRT-PCT, following treatment with AN446 and/or paclitaxel.
# IL-10 = IL-10 in supernatant of LPS-treated THP1 cells (ELISA); format: cell-based; conditions: 1 μg/ml LPS, FIG. 7B
# Experimental: as §1
# TLR4 [2] = experiment: TLR4 gene expression in MDA-MB-231 cells (qRT-PCR); format: cell-based, human; conditions: FIG. 7C
# Experimental: as §1
# fibrous collagen = experiment: Fibrosis in tumor, heart and kidney of U251 xenograft mice (Picrosirius Red / Fast Green); format: in vivo
# Experimental: AN446 was tested in vivo using a xenograft of glioblastoma (U251 cells) in mice.
# Hut-78 CTLC cell line = experiment: MTT cell viability assay, 48 hours; format: cell-based, human
# Experimental: (§2) The MyLa CTLC cell line (originating from an indolent mycosis fungoides patient) and the Hut-78 CTLC cell line (originating from an aggressive Sézary patient) were used to evaluate toxicity towards cancer cells, and peripheral blood lymphocytes (PBLs) from healthy volunteers were used to evaluate toxicity towards noncancerous cells.
# (§3) Cell viability was determined by an MTT cell viability assay after 48 hours. MyLa cells (10^4 cells/well), Hut78 cells (5×10^3 cells/well) and normal PBLs (10^5 cells/well) were seeded in 96 well-plates. The PBLs were activated with 40 μg/10^6 cells of phytohemagglutinine (PHA) for 24 h before the experiment.
# MyLa CTLC cell line = experiment: MTT cell viability assay, 48 hours; format: cell-based, human
# Experimental: as §2, §3
# U251 cells = experiment: Hoechst viability assay 72 h / median-effect combination study; conditions: Homo sapiens, U-251, 72 h, read-out: IC50 value for viability in U251 cells after 72 hours
# Experimental: Hoechst assay: 22RV-1, MCF-7, MCF-7DX, 4T1, U251, and T47D cells (3×10^3 cells/well) and NCI-N87 (8×10^3 cells/well) were seeded in tissue culture in growth medium for 24 h in 96-well plates (in triplicate) and then exposed to different concentrations (titration) of the tested drug for 72 h at 37° C. The plates were then rinsed with PBS and fixed with 100 ml of 70% ethanol for 30 min. […] The fluorescence was measured (excitation at 390 nm and emission at 460 nm) with a Synergy III Fluorometer-Elisa reader (BioTek Instruments, Inc. Germany).
# The Median Effect Analysis (MEA) for a constant combination ratio was used for drugs interaction and the combination index (CI) determination.
# The average values of three independent experiments were calculated and analyzed with CalcuSyn software.
# TLR4 [3] = conditions: 24 hours, concentrations based on the IC50, FIG. 15
structure (smiles),measurement,setting,value
"CCCC(CCC)C(=O)Nc1nc2c(ncn2COCCOC(=O)C(CCC)CCC)c(=O)[nH]1 [AN446, N-valproyl-9-(2-valproyloxy)ethoxymethyl-guanine]",potency as HDAC inhibitor relative to AN7,[1],2-3 fold
same,viability / mortality of astrocytes,primary rat astrocytes,did not substantially affect the viability
same,percentage of ROS positive U251 cells,U251 glioblastoma cells,increased the percentage of ROS positive U251 glioblastoma cells significantly more than Dox
same,LPS-induced expression of TNF-α,TNF-α,suppressed
same,expression of IL-10,IL-10,doubled
same,paclitaxel-induced increase in expression of TLR4,TLR4 [2]; combination with paclitaxel,significantly attenuated
same,expression of TLR4,TLR4 [2]; single agent,reduced expression of TLR4
same,doxorubicin-induced fibrosis in the heart,"fibrous collagen; heart, co-administration with doxorubicin",attenuated the doxorubicin-induced fibrosis
same,doxorubicin-induced fibrosis in the kidneys,"fibrous collagen; kidneys, co-administration with doxorubicin",attenuated the doxorubicin-induced fibrosis
same,fibrosis in the tumor,"fibrous collagen; tumor, single agent, FIG. 8A",reduced fibrosis
same,IC50,"Hut-78 CTLC cell line; Homo sapiens, HuT78, 48 h, read-out: IC50 HUT78",21 ± 1.3 µM
same,toxicity to Hut-78 cells relative to normal PBLs,Hut-78 CTLC cell line; from Table 1 IC50 values,about 10 fold
same,IC50,"MyLa CTLC cell line; Homo sapiens, 48 h, read-out: IC50 MyLa",40 ± 2.3 µM
same,toxicity to MyLa cells relative to normal PBLs,MyLa CTLC cell line; from Table 1 IC50 values,about 5 fold
same,IC50,U251 cells,20 µM
same,TLR4 expression in MDA-231 cells,TLR4 [3],considerably more effective than valproic acid at repressing TLR4
